Reference: US10688096B2, “Methods for treatment of sleep-related breathing disorders” (The University of Chicago, priority 2010, dated 2020)

Experiments:
carotid body [1] = assay: Carotid body sensory activity ex vivo (carotid sinus nerve single unit discharge), mice
Description: (§1) Sensory activity from carotid bodies ex vivo was recorded as previously described (Peng, Y. J., et al., PNAS, 2003, 100, 10073-78; Peng Y. J., et. al., J. Physiol., 2006, 577, 705-716). Briefly, carotid bodies along with the sinus nerves were harvested from anaesthetized mice or rats, placed in a recording chamber (volume, 250 μl) and superfused with warm physiological saline (35° C.) at a rate of 2.5 ml/min having the following composition (mM): NaCl (140), KCl (5.4), CaCl2 (2.5), MgCl2 (0.5), HEPES (5.5), D-glucose (11), sucrose (5), and the solution was bubbled with 100% O2 and pH was adjusted to 7.35. Carotid bodies were challenged with graded hypoxia by switching the perfusate equilibrated with gas mixtures containing varying levels of O2. For assessing the carotid body response to CO2, bicarbonate-buffered medium equilibrated with either […] (baseline) or 90% 02+10% CO2 balance N2. Clearly identifiable action potentials (2-3 active units) were recorded from one of the nerve bundles with a suction electrode and stored in a computer via a data acquisition system (PowerLab/8P, AD Instruments Pty Ltd, Australia). ‘Single’ units were selected based on the height and duration of the individual action potentials using a spike discrimination program (Spike Histogram Program, Power Laboratory, AD Instruments). In each carotid body, at least two chemoreceptor units were analyzed. The PO2, and PCO2 of the superfusion medium were determined by a blood gas analyzer (ABL 5, Radiometer, Copenhagen, Denmark).
(§2) Rats and mice were treated with DL-propargylglycine (Sigma; 200 mg/kg) or Cr(III) Mesoporphyrin IX chloride (CrM459, Frontier Scientific, Logan, Utah; 1 mg/kg) intraperitoneally 2-3 h before acute experiments on anesthetized animals. NaHS (Sigma chemicals, MO) was given acutely to the ex vivo carotid body preparation. In the in vitro assays for H2S measurements, known concentrations of HO-2 inhibitor and CO donor (tricarbonyldichlororuthenium, [Ru(CO)3Cl2]2, Sigma, USA) were added to cell lysates. All solutions with drugs were prepared fresh during the experiments.
(§3) In unsedated mice RR (breaths/min), VT (μl), minute ventilation [VE (ml/min)=RR×VT], O2 consumption (VO2, ml/min), and CO2 production (VCO2 ml/min) were analyzed. Respiratory variables (RR and VT) were averaged for at least 20 consecutive breaths over 5 min of inspired O2 and CO2 challenge. VT, VE, VO2 and VCO2 were normalized to body weight. Carotid body sensory activity (discharge from ‘single’ units) was averaged during 3 min of baseline and during the 3 min of gas challenge and expressed as impulses per second unless otherwise stated. The number of secretory events and the amount of catecholamine secreted per secretory event were analyzed in each experiment and the data were expressed as total catecholamines secreted. Average data are presented as mean±S.E.M. Statistical significance was assessed by either ANOVA or two-way ANOVA with repeated measures followed by Tukey's test. p values <0.05 were considered significant.

carotid body [2] = assay: Carotid body sensory activity ex vivo (carotid sinus nerve single unit discharge), rats
Description: as §1, §2, §3

[3] = system: H2S generation in adrenal glands; assay: H2S generation in adrenal glands of rat pups; format: biochemical, rats; settings: PAG treated rat pups vs vehicle; data not shown
[4] = Respiration (rate and depth) in spontaneously hypertensive and Sprague-Dawley rats, whole body polysomnography; format: in vivo; settings: FIG. 14
Description: FIG. 14. […] Spontaneously hypertensive rats (SHR) were treated with the CSE inhibitor propargylglycine. Their respiration was measured using whole body polysomnography. The control animals were Sprague-Dawley rats.

[5] = system: neonatal adrenal medullary chromaffin cells (AMC); assay: Catecholamine secretion from neonatal adrenal medullary chromaffin cells by amperometry; format: cell-based, rats; settings: 40 mM K+, AMC from PAG treated rat pups; FIG. 6B
Description: The protocols for preparation of chromaffin cells and measurements of catecholamine secretion by amperometry are as follows. Briefly, adrenal glands were harvested from anesthetized mice and rats aged P10. Chromaffin cells were enzymatically dissociated, plated on collagen (type VII; Sigma) coated coverslips, and maintained at 37° C. in a 5% CO2 incubator for 12-24 h. The growth medium consisted of F-12 K medium (Invitrogen) supplemented with 10% horse serum, 5% fetal bovine serum, and 1% Penicillin/streptomycin/glutamine cocktail (Invitrogen). Catecholamine secretion from chromaffin cells was monitored by amperometry using carbon fiber electrodes. […] Normoxic solutions were equilibrated with room air (PO2˜146 mmHg), and hypoxic solutions were equilibrated with appropriate gas mixtures that yielded medium PO2, of ˜30-40 mmHg as measured by blood gas analyzer. […]
In unsedated mice RR (breaths/min), VT (μl), minute ventilation [VE (ml/min)=RR×VT], O2 consumption (VO2, ml/min), and CO2 production (VCO2 ml/min) were analyzed. […] Carotid body sensory activity (discharge from ‘single’ units) was averaged during 3 min of baseline and during the 3 min of gas challenge and expressed as impulses per second unless otherwise stated. […]

[6] = system: H2S generation in carotid bodies; assay: Measurement of H2S levels in carotid body homogenates, rats; format: biochemical
Description: (§4) H2S levels in the carotid body were assayed as follows. Briefly, carotid bodies were pooled (4 carotid bodies per experiment in rats; 6 carotid bodies per experiment in mice) and tissue homogenates were prepared in 100 mM potassium phosphate buffer, pH 7.4. The enzyme reaction was carried out in sealed tubes flushed with either N2 or different levels of O2—N2 gas mixtures. The PO2 of the reaction medium was determined by blood gas analyzer (ABL5). The assay mixture in a total volume of 500 μl contains (in final concentration): L-cysteine, (800 μM); pyridoxal 5′-phosphate, (80 μM); potassium phosphate buffer, pH 7.4, (100 mM); and tissue homogenate (2 μg protein). The reaction mixture was incubated at 37° C. for 1 h and at the end of the reaction, alkaline zinc acetate (1% w/v; 250 up and trichloroacetic acid (10% v/v) was added sequentially to trap H2S generated and to stop the reaction, respectively. The zinc sulfide formed was reacted sequentially with acidic N,N-dimethyl-p-phenylenediamine sulfate (20 μM) and ferric chloride (30 μM) and the absorbance was measured at 670 nm using a micro-plate reader. A standard curve relating the concentration of Na2S and absorbance was used to calculate H2S concentration and expressed as nanomoles of H2S formed per hour per milligram protein.
as §2

[7] = system: H2S generation in carotid bodies; assay: Measurement of H2S levels in carotid body homogenates, mice; format: biochemical; settings: 1 μM, normoxia, FIG. 5A
Description: as §4, with “protein. […]” for “protein.”

[8] = systemic administration (1 mg/kg i.p.), CSE+/+ mice, FIG. 5B-D

In the case of `[Na+].[SH-]` [NaHS], the “carotid body sensory activity” value (carotid body [1]; exogenous NaHS 100 μM, CSE+/+ and CSE−/− mice, FIG. 11) is reported as “augmented”, the “carotid body response in Ca2+-free and EGTA containing medium” value (carotid body [2]; 100 μM NaHS, rats, FIG. 4B) is reported as “abolished” and the “onset of carotid body response after application” value (carotid body [2]; NaHS, activity returned to baseline after termination, FIG. 4A) is reported as “within seconds”. For the same compound, the “carotid body sensory activity” value (carotid body [2]; exogenous NaHS, rats, FIG. 4A) was “augmented”.

In the case of `C#CCC(N)C(=O)O` (racemic) [PAG, DL-propargylglycine], the “hypoxia-induced increase of H2S generation in adrenal glands” value [3] is reported as “greatly reduced or absent”, the “carotid body sensory response to hypoxia” value (carotid body [1]; CSE+/+ mice treated systemically with PAG (200 mg/kg i.p. 2-3 h before), FIG. 9) is reported as “loss of the hypoxic response” and the “carotid body hypoxic response, acute application” value (carotid body [1]; acute application of PAG to the carotid body) is reported as “ineffective in preventing the hypoxic response”. The respiration frequency ([4]; control Sprague-Dawley rats treated with PAG) was “reducing respiration frequency very slightly”, the breathing pattern ([4]; spontaneously hypertensive rats (SHR) treated with PAG) was “normalized” and the “carotid body response to CO2” value (carotid body [2]; PAG treated rats (same rats tested for hypoxia), FIG. 3C) was “significantly augmented”. For the same compound, the “carotid body sensory response to hypoxia” value (carotid body [2]; PAG treated rats vs vehicle, FIG. 3B) was “significantly attenuated”, the “K+-evoked catecholamine secretion” value [5] was “unaffected” and the “basal H2S levels in carotid body” value ([6]; PAG treated rats (vehicle=266±61)) was 147±50 nmol/h/mg protein. For the same compound, the “reduction of basal H2S levels in carotid body” value ([6]; PAG treated rats vs vehicle, p<0.05) was 55% and the “hypoxia-evoked H2S generation in carotid bodies” value ([6]; PAG treated rats, graded hypoxia, FIG. 3A) was “nearly absent”.

In the case of `O=[C]=[Ru]([Cl])([Cl])(=[C]=O)=[C]=O` [[Ru(CO)3Cl2]2, tricarbonyldichlororuthenium], the “H2S generation in carotid bodies under hypoxia” value ([6]; rat carotid bodies, hypoxia PO2=38 mmHg, 1 and 10 μM, FIG. 13B) is reported as “inhibited H2S generation by hypoxia nearly to the levels seen under normoxia”.

With `CCC1=C(C)c2cc3[n-]c(cc4nc(cc5[n-]c(cc1n2)c(C)c5CCC(=O)O)C(CCC(=O)O)=C4C)c(C)c3CC.[Cl][Cr+2]` [Cr (III) MP, Cr (III) mesoporphyrin IX chloride] the “baseline carotid body activity” value (carotid body [1]; [8]) was “significantly increased”, the “carotid body hypoxic response” value (carotid body [1]; [8]) was “potentiated” and the “increase of H2S generation in carotid bodies” value ([7]; CSE+/+ mice) was 6 fold. The “increase of H2S generation in carotid bodies” value ([7]; CSE−/− (mutant) mice) was “abolished” and the “H2S generation in carotid bodies under normoxia” value ([6]; rat carotid bodies, 1 and 100 μM, FIG. 13A) was “enhanced”.

For `COc1ccc(Cl)cc1C(=O)NCCc1ccc(S(=O)(=O)NC(=O)NC2CCCCC2)cc1` [glibenclamide], the “prevention of carotid body response to NaHS” value (carotid body [2]; 100 μM glibenclamide, 100 μM NaHS, rats, FIG. 12) was “failed to prevent” and the “prevention of carotid body response to hypoxia” value (carotid body [2]; 100 μM glibenclamide, hypoxia PO2=42 mmHg, rats, FIG. 12) was “failed to prevent”.

With `N[C@@H](CS)C(=O)O` [L-cysteine] the “effect on carotid body hypoxic response” value (carotid body [2]; 100 μM L-cysteine, isolated rat carotid body, FIG. 10) was “no significant effect”.
